Reference: ChEMBL document CHEMBL1130956 (Bioorg Med Chem Lett, 1998)

How the values were obtained:
[1] = target: T1, Cysteinyl leukotriene receptor 1 (Cavia porcellus, UniProt Q2NNR5); experiment: Binding affinity against leukotriene D4 receptor in [3H]LTD4 binding assay
T1 sequence (Q2NNR5 whole entry): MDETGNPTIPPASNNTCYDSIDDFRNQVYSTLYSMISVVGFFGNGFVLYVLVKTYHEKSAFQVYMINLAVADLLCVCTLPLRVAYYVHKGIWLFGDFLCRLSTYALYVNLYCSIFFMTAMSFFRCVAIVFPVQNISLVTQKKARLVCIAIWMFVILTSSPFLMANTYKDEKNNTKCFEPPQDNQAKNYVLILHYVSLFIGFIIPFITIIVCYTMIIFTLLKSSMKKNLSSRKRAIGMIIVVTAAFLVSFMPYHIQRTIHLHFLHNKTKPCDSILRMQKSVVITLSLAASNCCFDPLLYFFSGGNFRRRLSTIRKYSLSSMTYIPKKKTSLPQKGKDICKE

[2] = test system: Cavia porcellus; experiment: In vivo activity was determined after oral administration for 2 hr in a guinea pig efficacy model for allergic airway obstruction; format: functional
[3] = test system: U-937; experiment: Ability to mobilize Ca+2 in LTD4 dependent Ca+2 mobilization assay in differentiated human monocytic U-937 cells; format: functional, cell-based
[4] = test system: Cavia porcellus; experiment: In vivo activity was determined after oral administration for 1 hr in a guinea pig efficacy model for allergic airway obstruction; format: functional
[5] = test system: Cavia porcellus; experiment: In vivo activity was determined after 1 mg/kg oral administration for 1 hr in a guinea pig efficacy model for allergic airway obstruction; format: functional
[6] = test system: Cavia porcellus; experiment: In vivo activity was determined after 1 mg/kg oral administration for 2 hrs in a guinea pig efficacy model for allergic airway obstruction; format: functional
[7] = test system: Cavia porcellus; experiment: In vivo activity was determined after oral administration for 2 hrs in a guinea pig efficacy model for allergic airway obstruction; format: functional

## COc1cc(C(=O)NS(=O)(=O)c2ccccc2C)ccc1Cc1cn(C(=O)N(C)c2ccccc2)c2ccc(NC(=O)OC3CCCC3)cc12
[1]
  IC50: 400 pM
[2]
  ED50: 1.1 mg/kg
[3]
  IC50: 200 pM

## COc1cc(C(=O)NS(=O)(=O)c2ccccc2C)ccc1Cc1cn(C(N)=O)c2ccc(NC(=O)OC3CCCC3)cc12
[1]
  IC50: 500 pM
[3]
  IC50: 300 pM
[4]
  ED50: 1.6 mg/kg

## COc1cc(C(=O)NS(=O)(=O)c2ccccc2C)ccc1Cc1cn(C(=O)N2CCOCC2)c2ccc(NC(=O)OC3CCCC3)cc12
[1]
  IC50: 400 pM
[3]
  IC50: 2000 pM
[4]
  Inhibition: 8%

## COc1cc(C(=O)NS(=O)(=O)c2ccccc2C)ccc1Cc1cn(C=O)c2ccc(NC(=O)OC3CCCC3)cc12
[1]
  IC50: 1000 pM
[3]
  IC50: 600 pM
[4]
  ED50: 0.84 mg/kg

## COc1cc(C(=O)NS(=O)(=O)c2ccccc2C)ccc1Cc1cn(C(=O)NCCCc2ccccc2)c2ccc(NC(=O)OC3CCCC3)cc12
[1]
  IC50: 500 pM
[3]
  IC50: 100 pM
[4]
  ED50: 1.6 mg/kg

## COc1cc(C(=O)NS(=O)(=O)c2ccccc2C)ccc1Cc1c[nH]c2ccc(NC(=O)OC3CCCC3)cc12 [N-DEALKYLATED DERIVATIVE]
[5]
  inhibition in vivo at 1 mg/kg: 40%
[1]
  IC50: 1000 pM
[3]
  IC50: 2000 pM

## COc1cc(C(=O)NS(=O)(=O)c2ccccc2C)ccc1Cc1cn(C(F)F)c2ccc(NC(=O)OC3CCCC3)cc12
[6]
  inhibition in vivo at 1 mg/kg: 58%
[1]
  IC50: 1000 pM
[3]
  IC50: 400 pM

## COc1cc(C(=O)NS(=O)(=O)c2ccccc2C)ccc1Cc1cn(C(=O)N(c2ccccc2)c2ccccc2)c2ccc(NC(=O)OC3CCCC3)cc12
[1]
  IC50: 2000 pM
[2]
  ED50: 1.1 mg/kg
[3]
  IC50: 400 pM

## COc1cc(C(=O)NS(=O)(=O)c2ccccc2C)ccc1Cc1cn(C)c2ccc(NC(=O)OC3CCCC3)cc12 [ZAFIRLUKAST]
[3]
  IC50: 1000 pM
[7]
  ED50: 0.9 mg/kg

## CCN(CC)C(=O)n1cc(Cc2ccc(C(=O)NS(=O)(=O)c3ccccc3C)cc2OC)c2cc(NC(=O)OC3CCCC3)ccc21
[1]
  IC50: 500 pM
[3]
  IC50: 800 pM
[4]
  ED50: 1.2 mg/kg

## COc1cc(C(=O)NS(=O)(=O)c2ccccc2C)ccc1Cc1cn(C(=O)NCCN(C)C)c2ccc(NC(=O)OC3CCCC3)cc12
[1]
  IC50: 500 pM
[3]
  IC50: 100 pM
[4]
  Inhibition: 34%

## COc1cc(C(=O)NS(=O)(=O)c2ccccc2C)ccc1Cc1cn(C(=O)N(C)C)c2ccc(NC(=O)OC3CCCC3)cc12
[5]
  inhibition in vivo at 1 mg/kg: 39%
[1]
  IC50: 400 pM
[3]
  IC50: 1000 pM
